# How the values were obtained:
# corn (ZEAMD) = assay: Test 25 field trial, postemergence, growth as percent of control; type: in vivo, Zea mays ssp. indentata
# Source text: (§1) Corn seeds (hybrid ‘Pioneer 31G96 RR’) were planted in mid spring season, 3.8 cm deep in a clay loam soil having 2% organic matter and a pH of 6.6. Plots were 6.1 m long by 3.0 m wide with rows spaced 76 cm apart. Seeds were spaced 15 cm apart within the rows. The field was managed using conventional tillage practices. […] Giant ragweed and Pennsylvania smartweed could only be evaluated 14 days after application. […] Results are the means of the three replicates. This growth inhibition data was converted to results in the form of “plant growth as a percent of control plant growth” using the calculation “100 minus growth inhibition”.
# (§2) When this form of Colby's Equation is used, if the observed effects on weeds are less than the expected values, the mixture is synergistic.
# velvetleaf (ABUTH) = assay: as above; type: in vivo, Abutilon theophrasti
# Source text: as §1, §2
# redroot pigweed (AMARE) [1] = assay: as above; type: in vivo, Amaranthus retroflexus
# Source text: as §1, §2
# common ragweed (AMBEL) = assay: as above; type: in vivo, Ambrosia artemisiifolia
# Source text: as §1, §2
# giant ragweed (AMBTR) = assay: as above; type: in vivo, Ambrosia trifida; settings: 14 DAA
# Source text: as §1, §2
# [2] = tested on: common lambsquarters (CHEAL); assay: as above; type: in vivo, Chenopodium album
# Source text: as §1, §2
# [3] = tested on: Pennsylvania smartweed (POLPY); assay: as above; type: in vivo, Polygonum pensylvanicum; settings: 14 DAA
# Source text: as §1, §2
# giant foxtail (SETFA) = assay: as above; type: in vivo, Setaria faberi
# Source text: as §1, §2
# redroot pigweed (AMARE) [4] = assay: Test 24 growth chamber, postemergence; type: in vivo, Amaranthus retroflexus; settings: 17 DAA
# Description: (§3) Plants were treated postemergence at the 2-4 leaf growth stage, and each treatment was replicated three times. […] Plants were watered as needed. […] Results for barley and wheat are the means across varieties of the three replicates, and results for the weeds are the means of the three replicates.
# [5] = tested on: common lambsquarters (CHEAL); assay: Test 24 growth chamber, postemergence; type: in vivo, Chenopodium album; settings: 17 DAA
# Description: as §3
# galium (GALAP) = assay: Test 24 growth chamber, postemergence; type: in vivo, Galium aparine; settings: 17 DAA
# Description: as §3
# kochia (KCHSC) = assay: Test 24 growth chamber, postemergence; type: in vivo, Kochia scoparia; settings: 17 DAA
# Description: as §3
# wild chamomile (MATCH) = assay: Test 24 growth chamber, postemergence; type: in vivo, Matricaria chamomilla; settings: 17 DAA
# Description: as §3
# field poppy (PAPRH) = assay: Test 24 growth chamber, postemergence; type: in vivo, Papaver rhoeas; settings: 17 DAA
# Description: as §3
# wild buckwheat (POLCO) = assay: Test 24 growth chamber, postemergence; type: in vivo, Polygonum convolvulus; settings: 17 DAA
# Description: as §3
# Russian thistle (SASKR) = assay: Test 24 growth chamber, postemergence; type: in vivo, Salsola kali; settings: 17 DAA
# Description: as §3
# wild mustard (SINAR) = assay: Test 24 growth chamber, postemergence; type: in vivo, Sinapis arvensis; settings: 17 DAA
# Description: as §3
# common chickweed (STEME) = assay: Test 24 growth chamber, postemergence; type: in vivo, Stellaria media; settings: 17 DAA
# Description: as §3
# field violet (VIOAR) = assay: Test 24 growth chamber, postemergence; type: in vivo, Viola arvensis; settings: 17 DAA
# Description: as §3
# [6] = Diflufenzopyr 30 g a.i./ha, 14 DAA
# [7] = Diflufenzopyr 30 g a.i./ha, 28 DAA
# [8] = Diflufenzopyr 30 g a.i./ha, 56 DAA
# [9] = Diflufenzopyr 45 g a.i./ha, 14 DAA
# [10] = Diflufenzopyr 45 g a.i./ha, 28 DAA
# [11] = Diflufenzopyr 45 g a.i./ha, 56 DAA
# [12] = Nicosulfuron 15 g a.i./ha, 14 DAA
# [13] = Nicosulfuron 15 g a.i./ha, 28 DAA
# [14] = Nicosulfuron 15 g a.i./ha, 56 DAA
structure (smiles),measurement,setting,value
C/C(=N\NC(=O)Nc1cc(F)cc(F)c1)c1ncccc1C(=O)O [Diflufenzopyr],ZEAMD Obs (percent of control),corn (ZEAMD); [6],100%
same,ZEAMD Obs (percent of control),corn (ZEAMD); [7],83%
same,ZEAMD Obs (percent of control),corn (ZEAMD); [8],100%
same,ZEAMD Obs (percent of control),corn (ZEAMD); [9],100%
same,ZEAMD Obs (percent of control),corn (ZEAMD); [10],88%
same,ZEAMD Obs (percent of control),corn (ZEAMD); [11],100%
same,ABUTH Obs (percent of control),velvetleaf (ABUTH); [6],28%
same,ABUTH Obs (percent of control),velvetleaf (ABUTH); [7],58%
same,ABUTH Obs (percent of control),velvetleaf (ABUTH); [8],33%
same,ABUTH Obs (percent of control),velvetleaf (ABUTH); [9],15%
same,ABUTH Obs (percent of control),velvetleaf (ABUTH); [10],55%
same,ABUTH Obs (percent of control),velvetleaf (ABUTH); [11],40%
same,AMARE Obs (percent of control),redroot pigweed (AMARE) [1]; [6],48%
same,AMARE Obs (percent of control),redroot pigweed (AMARE) [1]; [7],63%
same,AMARE Obs (percent of control),redroot pigweed (AMARE) [1]; [8],30%
same,AMARE Obs (percent of control),redroot pigweed (AMARE) [1]; [9],47%
same,AMARE Obs (percent of control),redroot pigweed (AMARE) [1]; [10],55%
same,AMARE Obs (percent of control),redroot pigweed (AMARE) [1]; [11],55%
same,AMBEL Obs (percent of control),common ragweed (AMBEL); [6],60%
same,AMBEL Obs (percent of control),common ragweed (AMBEL); [7],73%
same,AMBEL Obs (percent of control),common ragweed (AMBEL); [8],83%
same,AMBEL Obs (percent of control),common ragweed (AMBEL); [9],57%
same,AMBEL Obs (percent of control),common ragweed (AMBEL); [10],60%
same,AMBEL Obs (percent of control),common ragweed (AMBEL); [11],75%
same,AMBTR Obs (percent of control),giant ragweed (AMBTR); Diflufenzopyr 45 g a.i./ha,75%
same,CHEAL Obs (percent of control),[2]; [6],50%
same,CHEAL Obs (percent of control),[2]; [7],78%
same,CHEAL Obs (percent of control),[2]; [8],10%
same,CHEAL Obs (percent of control),[2]; [9],45%
same,CHEAL Obs (percent of control),[2]; [10],65%
same,CHEAL Obs (percent of control),[2]; [11],0%
same,POLPY Obs (percent of control),[3]; Diflufenzopyr 30 g a.i./ha,30%
same,POLPY Obs (percent of control),[3]; Diflufenzopyr 45 g a.i./ha,35%
same,SETFA Obs (percent of control),giant foxtail (SETFA); [6],40%
same,SETFA Obs (percent of control),giant foxtail (SETFA); [7],60%
same,SETFA Obs (percent of control),giant foxtail (SETFA); [8],68%
same,SETFA Obs (percent of control),giant foxtail (SETFA); [9],40%
same,SETFA Obs (percent of control),giant foxtail (SETFA); [10],58%
same,SETFA Obs (percent of control),giant foxtail (SETFA); [11],60%
Nc1c(Cl)c(F)nc(OCC(=O)O)c1Cl [Fluroxypyr],AMARE Obs (scale 0 to 100),redroot pigweed (AMARE) [4]; Fluroxypyr 62 g a.i./ha,67
same,AMARE Obs (scale 0 to 100),redroot pigweed (AMARE) [4]; Fluroxypyr 125 g a.i./ha,77
same,CHEAL Obs (scale 0 to 100),[5]; Fluroxypyr 62 g a.i./ha,47
same,CHEAL Obs (scale 0 to 100),[5]; Fluroxypyr 125 g a.i./ha,58
same,GALAP Obs (scale 0 to 100),galium (GALAP); Fluroxypyr 62 g a.i./ha,80
same,GALAP Obs (scale 0 to 100),galium (GALAP); Fluroxypyr 125 g a.i./ha,85
same,KCHSC Obs (scale 0 to 100),kochia (KCHSC); Fluroxypyr 62 g a.i./ha,68
same,KCHSC Obs (scale 0 to 100),kochia (KCHSC); Fluroxypyr 125 g a.i./ha,73
same,MATCH Obs (scale 0 to 100),wild chamomile (MATCH); Fluroxypyr 62 g a.i./ha,60
same,MATCH Obs (scale 0 to 100),wild chamomile (MATCH); Fluroxypyr 125 g a.i./ha,65
same,PAPRH Obs (scale 0 to 100),field poppy (PAPRH); Fluroxypyr 62 g a.i./ha,65
same,PAPRH Obs (scale 0 to 100),field poppy (PAPRH); Fluroxypyr 125 g a.i./ha,73
same,POLCO Obs (scale 0 to 100),wild buckwheat (POLCO); Fluroxypyr 62 g a.i./ha,68
same,POLCO Obs (scale 0 to 100),wild buckwheat (POLCO); Fluroxypyr 125 g a.i./ha,75
same,SASKR Obs (scale 0 to 100),Russian thistle (SASKR); Fluroxypyr 62 g a.i./ha,75
same,SASKR Obs (scale 0 to 100),Russian thistle (SASKR); Fluroxypyr 125 g a.i./ha,75
same,SINAR Obs (scale 0 to 100),wild mustard (SINAR); Fluroxypyr 62 g a.i./ha,75
same,SINAR Obs (scale 0 to 100),wild mustard (SINAR); Fluroxypyr 125 g a.i./ha,75
same,STEME Obs (scale 0 to 100),common chickweed (STEME); Fluroxypyr 62 g a.i./ha,75
same,STEME Obs (scale 0 to 100),common chickweed (STEME); Fluroxypyr 125 g a.i./ha,83
same,VIOAR Obs (scale 0 to 100),field violet (VIOAR); Fluroxypyr 62 g a.i./ha,73
same,VIOAR Obs (scale 0 to 100),field violet (VIOAR); Fluroxypyr 125 g a.i./ha,82
COc1cc(OC)nc(NC(=O)NS(=O)(=O)c2ncccc2C(=O)N(C)C)n1 [Nicosulfuron],ZEAMD Obs (percent of control),corn (ZEAMD); [12],100%
same,ZEAMD Obs (percent of control),corn (ZEAMD); [13],100%
same,ZEAMD Obs (percent of control),corn (ZEAMD); [14],100%
same,ABUTH Obs (percent of control),velvetleaf (ABUTH); [12],48%
same,ABUTH Obs (percent of control),velvetleaf (ABUTH); [13],73%
same,ABUTH Obs (percent of control),velvetleaf (ABUTH); [14],100%
same,AMARE Obs (percent of control),redroot pigweed (AMARE) [1]; [12],2%
same,AMARE Obs (percent of control),redroot pigweed (AMARE) [1]; [13],2%
same,AMARE Obs (percent of control),redroot pigweed (AMARE) [1]; [14],33%
same,AMBEL Obs (percent of control),common ragweed (AMBEL); [12],95%
same,AMBEL Obs (percent of control),common ragweed (AMBEL); [13],100%
same,AMBEL Obs (percent of control),common ragweed (AMBEL); [14],100%
same,AMBTR Obs (percent of control),giant ragweed (AMBTR); Nicosulfuron 15 g a.i./ha,100%
same,CHEAL Obs (percent of control),[2]; [12],95%
same,CHEAL Obs (percent of control),[2]; [13],72%
same,CHEAL Obs (percent of control),[2]; [14],53%
same,POLPY Obs (percent of control),[3]; Nicosulfuron 15 g a.i./ha,28%
same,SETFA Obs (percent of control),giant foxtail (SETFA); [12],15%
same,SETFA Obs (percent of control),giant foxtail (SETFA); [13],11%
same,SETFA Obs (percent of control),giant foxtail (SETFA); [14],7%

# From patent US20100285959A1, “HERBICIDAL MIXTURES” (priority 2006, published 2010)
